pIC50: −log10 of the molar value.
Columns and labels:
human RIP1 = target: T1, human RIP1 (Homo sapiens, UniProt Q13546); assay: U937 cell necroptosis assay (TNFa + zVAD, CellTiter-Glo); format: cell-based; conditions: U937 Zvad TNF CTG Recovery, U937 cells, TNFa 2 ng/mL + zVAD-fmk, 18 hours
T1 construct: U937 and L929 cells were obtained from the American Type Culture Collection; host or cells: U937
T1 sequence (Q13546 1-671): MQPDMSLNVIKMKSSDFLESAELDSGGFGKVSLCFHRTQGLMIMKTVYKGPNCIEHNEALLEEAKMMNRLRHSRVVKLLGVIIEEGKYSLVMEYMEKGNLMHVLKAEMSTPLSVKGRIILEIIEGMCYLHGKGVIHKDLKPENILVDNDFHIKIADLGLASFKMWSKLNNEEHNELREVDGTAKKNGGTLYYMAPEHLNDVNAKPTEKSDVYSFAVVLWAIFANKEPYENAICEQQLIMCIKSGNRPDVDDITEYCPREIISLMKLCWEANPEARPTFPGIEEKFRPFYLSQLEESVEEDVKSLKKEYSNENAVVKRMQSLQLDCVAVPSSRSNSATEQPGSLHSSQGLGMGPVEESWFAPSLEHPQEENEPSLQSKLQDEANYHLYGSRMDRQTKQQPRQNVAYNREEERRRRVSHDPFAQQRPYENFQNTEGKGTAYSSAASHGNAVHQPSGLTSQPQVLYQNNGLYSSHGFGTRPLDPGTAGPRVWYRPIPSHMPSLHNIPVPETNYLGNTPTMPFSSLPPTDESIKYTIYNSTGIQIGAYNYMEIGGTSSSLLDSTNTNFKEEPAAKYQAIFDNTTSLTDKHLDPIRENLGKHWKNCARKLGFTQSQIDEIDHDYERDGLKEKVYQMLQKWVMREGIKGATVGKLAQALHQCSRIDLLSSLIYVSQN
Experimental: (§1) In this example, U937 and L929 cells were exposed to compounds of the present disclosure and a cell necroptosis assay was conducted to evaluate the compounds' activity against human RIP1 and murine RIP1.
(§2) U937 and L929 cells were obtained from the American Type Culture Collection (Manassa, Va., USA). Both cells were maintained in logarithmic growth phase in complete RPMI 1640 media (Sigma, ST Louis, Mo., USA) supplemented with 10% fetal bovine serum (Sigma, ST Louis, Mo., USA) at 37° C. with 5% CO2. For necroptosis assay, L929 cells were plated for 18 h in 100 µL/well medium at 10K cells/well in Costar 96-well black clear-bottom plates (Fisher Scientific, Hampton, N.H., USA); U937 cells were plated on the day of the assay in 50 µL/well medium containing 60 uM zVAD-fmk (Lonza, Basel, Switzerland) at 50K cells/well. Medium from L929 cells were removed from the 96-well plates and replaced with 50 µL/well new medium containing 40 uM zVAD-fmk. Each compound of the present disclosure evaluated in this example was serially diluted in DMSO from 2.5 mM in 4-fold dilutions, and then diluted 1:125 in complete medium. 50 µL/well 2× of the compound was then added to the cells in the plates. The cells were pre-incubated with the compound for 1 hour at 37° C. with 5% CO2 and before addition of 10 µL/well 11×TNFa (Peprotech, Rocky Hill, N.J., USA) to give a final concentration of 2 ng/mL for TNFa. The relative amount of necroptosis cells was determined by luminescent using a Wallac Victor2 Luminometer (PerkinElmer, Waltham, Mass., USA) and a CellTiter-Glo® Luminescent Cell Viability Reagent Assay (Promega, Madison, Wis., USA) added per manufacturer instructions after 18 hours of TNFa stimulation at 37° C. with 5% CO2.Results from this example are summarized in Table 2. This example establishes that embodiments of the compounds described herein have unexpectedly potent activity against human RIP1 and murine RIP1, which allows their assessment in in vivo mouse models of disease.

murine RIP1 = target: T2, murine RIP1 (Mus musculus, UniProt Q60855); assay: L929 cell necroptosis assay (TNFa + zVAD, CellTiter-Glo); format: cell-based
T2 construct: U937 and L929 cells were obtained from the American Type Culture Collection; host or cells: L929
T2 sequence (Q60855 1-656): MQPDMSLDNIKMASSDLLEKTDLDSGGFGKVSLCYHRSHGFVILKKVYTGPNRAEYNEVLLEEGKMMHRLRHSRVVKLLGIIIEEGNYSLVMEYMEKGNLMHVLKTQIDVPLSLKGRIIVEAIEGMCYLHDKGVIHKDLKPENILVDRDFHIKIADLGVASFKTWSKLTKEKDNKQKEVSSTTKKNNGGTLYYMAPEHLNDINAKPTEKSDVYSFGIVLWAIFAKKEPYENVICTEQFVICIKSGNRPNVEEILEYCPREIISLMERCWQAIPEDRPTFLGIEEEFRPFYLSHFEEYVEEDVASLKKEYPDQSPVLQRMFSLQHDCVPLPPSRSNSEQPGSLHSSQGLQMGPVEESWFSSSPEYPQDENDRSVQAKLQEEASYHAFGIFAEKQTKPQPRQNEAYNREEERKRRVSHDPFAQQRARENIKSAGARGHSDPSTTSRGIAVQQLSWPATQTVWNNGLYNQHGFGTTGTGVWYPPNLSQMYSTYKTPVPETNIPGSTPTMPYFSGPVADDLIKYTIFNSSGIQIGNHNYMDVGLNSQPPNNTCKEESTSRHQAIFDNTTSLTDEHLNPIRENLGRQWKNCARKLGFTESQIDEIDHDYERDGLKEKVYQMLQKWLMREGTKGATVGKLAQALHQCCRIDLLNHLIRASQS
Experimental: as §1, §2

RIPK1 = target: T3, RIPK1 (Homo sapiens, UniProt Q13546); assay: RIPK1 ADP-Glo biochemical kinase assay; conditions: 30 min at 30° C.
T3 sequence (Q13546 1-671): T1 sequence (Q13546 1-671)
Experimental: The final reaction volume was 5.0 μl.
Adding 5 μl of ADP-Glo™ terminated the reaction.

CN1C(=O)C(NC(=O)c2n[nH]c(Cc3ccccc3)n2)CCc2ccc(CN3CCn4ncnc4C3)cc21 (racemic) [Compound I-8, (±)-5-Benzyl-N-(8-((5,6-dihydro-[1,2,4]triazolo[1,5-a]pyrazin-7(8H)-yl)methyl)-1-methyl-2-oxo-2,3,4,5-tetrahydro-1H-benzo[b]azepin-3-yl)-1H-1,2,4-triazole-3-carboxamide]
pIC50 (human RIP1): 8.03 | pIC50 (murine RIP1): 5.26 | pIC50 (RIPK1): 6.42

CN1C(=O)C(NC(=O)c2n[nH]c(Cc3ccccc3)n2)CCc2ccc(N3CCC4(CCOCC4)CC3)cc21 (racemic) [Compound I-13, (±)-5-Benzyl-N-(1-methyl-2-oxo-8-(3-oxa-9-azaspiro[5.5]undecan-9-yl)-2,3,4,5-tetrahydro-1H-benzo[b]azepin-3-yl)-1H-1,2,4-triazole-3-carboxamide]
pIC50 (human RIP1): 8.68 | pIC50 (murine RIP1): 7.02 | pIC50 (RIPK1): 6.43

[2H]C([2H])([2H])N1C(=O)[C@@H](NC(=O)n2cc(Cc3ccc(F)cc3)cn2)CCc2ccc(C#CC(C)(C)O)cc21 [Compound I-36, 4-(4-Fluorobenzyl)-N-(8-(3-hydroxy-3-methylbut-1-yn-1-yl)-1-(methyl-d)-2-oxo-2,3,4,5-tetrahydro-1H-benzo[b]azepin-3-yl)-1H-pyrazole-1-carboxamide]
pIC50 (human RIP1): 9.30 | pIC50 (murine RIP1): 8.35 | pIC50 (RIPK1): 7.41

CN1C(=O)[C@@H](NC(=O)c2cc(Oc3ccccc3)ccn2)CCc2ccc(-c3ccc(C#CC(C)(C)O)nc3)cc21 [Compound I-2, (S)—N-(8-(6-(3-hydroxy-3-methylbut-1-yn-1-yl)pyridin-3-yl)-1-methyl-2-oxo-2,3,4,5-tetrahydro-1H-benzo[b]azepin-3-yl)-4-phenoxypicolinamide]
pIC50 (human RIP1): 8.70 | pIC50 (murine RIP1): 6.85 | pIC50 (RIPK1): 7.48

CN1C(=O)C(NC(=O)c2cc(Oc3ccccc3)ccn2)CCc2ccc(N3CCC4(CCOCC4)CC3)cc21 (racemic) [Compound I-27, (±)-N-(1-Methyl-2-oxo-8-(3-oxa-9-azaspiro[5.5]undecan-9-yl)-2,3,4,5-tetrahydro-1H-benzo[b]azepin-3-yl)-4-phenoxypicolinamide]
pIC50 (human RIP1): 8.32 | pIC50 (murine RIP1): 6.19 | pIC50 (RIPK1): 7.33

CN1C(=O)C(NC(=O)c2n[nH]c(Cc3ccccc3)n2)CCc2ccc(CN3CCN(c4ccncc4)CC3)cc21 (racemic) [Compound I-4, (±)-5-Benzyl-N-(1-methyl-2-oxo-8-((4-(pyridin-4-yl)piperazin-1-yl)methyl)-2,3,4,5-tetrahydro-1H-benzo[b]azepin-3-yl)-1H-1,2,4-triazole-3-carboxamide]
pIC50 (human RIP1): 7.27 | pIC50 (RIPK1): 6.28

CN1C(=O)C(NC(=O)c2cc(Oc3ccccc3)ccn2)CCc2ccc(C#CC(C)(C)O)cc21 (racemic) [Compound I-24, (±)-N-(8-(3-Hydroxy-3-methylbut-1-yn-1-yl)-1-methyl-2-oxo-2,3,4,5-tetrahydro-1H-benzo[b]azepin-3-yl)-4-phenoxypicolinamide]
pIC50 (human RIP1): 8.72 | pIC50 (murine RIP1): 7.89 | pIC50 (RIPK1): 7.24

O=C(NC1CCc2ccc(CN3CCN(c4ccncc4)CC3)cc2NC1=O)c1ncn(Cc2c(Cl)cccc2Cl)n1 (racemic) [Compound I-5, (±)-1-(2,6-Dichlorobenzyl)-N-(2-oxo-8-((4-(pyridin-4-yl)piperazin-1-yl)methyl)-2,3,4,5-tetrahydro-1H-benzo[b]azepin-3-yl)-1H-1,2,4-triazole-3-carboxamide]
pIC50 (human RIP1): 7.79 | pIC50 (RIPK1): 7.18

[2H]C([2H])([2H])N1C(=O)C(NC(=O)c2n[nH]c(Cc3ccccc3)n2)CCc2ccc(N3CC4(CCOCC4)C3)cc21 (racemic) [Compound I-15, (±)-5-Benzyl-N-(1-(methyl-d3)-2-oxo-8-(7-oxa-2-azaspiro[3.5]nonan-2-yl)-2,3,4,5-tetrahydro-1H-benzo[b]azepin-3-yl)-1H-1,2,4-triazole-3-carboxamide]
pIC50 (human RIP1): 8.10 | pIC50 (murine RIP1): 6.59 | pIC50 (RIPK1): 6.97

O=C(NC1CCc2ccc(CN3CCN(c4ccncc4)CC3)cc2NC1=O)c1n[nH]c(Cc2ccccc2)n1 (racemic) [Compound I-6, (±)-5-Benzyl-N-(2-oxo-8-((4-(pyridin-4-yl)piperazin-1-yl)methyl)-2,3,4,5-tetrahydro-1H-benzo[b]azepin-3-yl)-1H-1,2,4-triazole-3-carboxamide]
pIC50 (human RIP1): 5.84 | pIC50 (RIPK1): 6.48

CN1C(=O)C(NC(=O)c2nccc(-c3ccccc3)n2)CCc2ccc(CN3CCn4ncnc4C3)cc21 (racemic) [Compound I-39, (±)-N-(8-((5,6-dihydro-[1,2,4]triazolo[1,5-a]pyrazin-7(8H)-yl)methyl)-1-methyl-2-oxo-2,3,4,5-tetrahydro-1H-benzo[b]azepin-3-yl)-4-phenylpyrimidine-2-carboxamide]
pIC50 (human RIP1): 6.66

O=C(NC1CCc2ccc(CN3CCN(c4ccncc4)CC3)cc2NC1=O)c1n[nH]c(Cc2ccccc2)n1 (racemic) [Compound I-7, (±)-5-Benzyl-N-(2-oxo-8-((4-(pyridin-4-yl)piperazin-1-yl)methyl)-2,3,4,5-tetrahydro-1H-benzo[b]azepin-3-yl)-1H-1,2,4-triazole-3-carboxamide]
pIC50 (human RIP1): 5.58 | pIC50 (RIPK1): 6.09

CN1C(=O)C(NC(=O)c2n[nH]c(Cc3ccccc3)n2)CCc2ccc(N3CCN4CCC3CC4)cc21 (racemic) [Compound I-11, (±)-N-(8-(1,4-Diazabicyclo[3.2.2]nonan-4-yl)-1-methyl-2-oxo-2,3,4,5-tetrahydro-1H-benzo[b]azepin-3-yl)-5-benzyl-1H-1,2,4-triazole-3-carboxamide]
pIC50 (human RIP1): 5.97 | pIC50 (RIPK1): 6.09

O=C(NC1CCc2ccc(CN3CCN(c4ccncc4)CC3)cc2NC1=O)c1cc(Oc2ccccc2)ccn1 (racemic) [Compound I-26, (±)-N-(2-Oxo-8-((4-(pyridin-4-yl)piperazin-1-yl)methyl)-2,3,4,5-tetrahydro-1H-benzo[b]azepin-3-yl)-4-phenoxypicolinamide]
pIC50 (human RIP1): 5.41 | pIC50 (RIPK1): 6.18

CN1C(=O)C(NC(=O)c2nccc(-c3ccccc3)n2)CCc2ccc(CN3CCN(c4ccncc4)CC3)cc21 (racemic) [Compound I-38, (±)-N-(1-Methyl-2-oxo-8-((4-(pyridin-4-yl)piperazin-1-yl)methyl)-2,3,4,5-tetrahydro-1H-benzo[b]azepin-3-yl)-4-phenylpyrimidine-2-carboxamide]
pIC50 (human RIP1): 5.20 | pIC50 (RIPK1): 5.35

Reference: patent US20210070735A1, “RIP1 INHIBITORY COMPOUNDS AND METHODS FOR MAKING AND USING THE SAME” (Rigel Pharmaceuticals, Inc., priority 2019, published 2021)
